Measurements: paper PMC9950073, “Alleviation of arthritis through prevention of neutrophil extracellular traps by an orally available inhibitor of protein arginine deiminase 4” (Scientific Reports, 2023)

How the values were obtained:
[1] = Plasma protein binding (equilibrium dialysis); format: in vitro ADME; conditions: pH 7.4, plasma across species, read-out: PPB (% unbound)
Experimental: Plasma protein binding: 10 µM of JBI-589 was mixed with plasma from different species (in sodium phosphate buffer, pH 7.4) was added to the plasma side of the 96-well micro-equilibrium dialysis device and sodium phosphate buffer (pH 7.4) was added to the other half of the device. The device was incubated at 37 ± 1 °C for 14 h with constant shaking. After the incubation time, plasma and buffer were collected from either side, quenched (0.5% formic acid in internal standard (IS) containing ACN), centrifuged and supernatant was used for LC–MS/MS analysis. Percent of unbound compound was calculated as follows: Percent unbound: [peak area ratio in buffer side/dilution factor]/peak area ratio in plasma side × 100; Peak area ratio: compound peak area/internal standard peak area.

[2] = tested on: G-CSF-modified collagen-induced arthritis; assay: G-CSF-modified collagen-induced arthritis model; format: in vivo, C57BL/6 mice
Experimental: C57BL/6 mice aged 8– 12 weeks were immunized with the emulsion of complete Freund's adjuvant (CFA, catalog number: 7023, Chondrex, Redmond, WA) and 100 μg of chicken type II collagen (catalog number: 20012, Chondrex) in a 1:1 mixture (total 100 μl) subcutaneously into the base of the tail on day 0[18]. The booster immunization of CII with incomplete Freund's adjuvant (catalog number: 7002, Chondrex) was performed on day 21. Recombinant human G-CSF (Filgrastim, Neupogen, Amgen, Inc., Thousand Oaks, CA) was injected at 10 μg peritoneally once daily from day 20 to day 23. Vehicle (water) or 50 mg/kg of JBI-589 was orally administered twice daily from day 20 to day 56. The severity of arthritis was evaluated using the following clinical scoring system for each limb: 0, normal; 1, swelling in one finger joint; 2, swelling in more than one finger joint or wrist or ankle joint; 3, swelling in the entire paw; and 4, deformity and or ankylosis. The maximum score was 16 per mouse. […] At the end of the study, all mice were euthanized after giving anesthesia using 2% isoflurane (Patterson Veterinary, catalog number: 07–893-2374). […]
H&E stain of joint tissue was performed following the previously described method.
Inflammation was scored on a scale of 0 (no inflammation) to 3 (severe inflamed joint) depending on the number of inflammatory cells in the synovial cavity (exudate) and synovial tissue (infiltrate)[39]. […]
Expressions of target proteins in synovial tissue on the joint surface of wrists and ankles were determined by immunoblotting. Synovial tissue was homogenized in radioimmunoprecipitation assay (RIPA) buffer (catalog number: 89901, Thermo Fisher Scientific) with protease inhibitor cocktails (catalog number: R0278, Sigma, St. Louis, MO) on ice. Following centrifugation at 20,000 g for 20 min at 4 °C, the protein content of the supernatant was determined by the Bradford protein assay (catalog number: 5000006, Bio-Rad Laboratories), and an equal amount of protein per sample was used. Protein lysate was resolved on gradient gels (Bolt 4–12% Bis–Tris Plus gels, catalog number: NW04122BOX, Life Technologies) and electroblotted on polyvinylidene difluoride (PVDF) membranes (catalog number: IB401001, Invitrogen) using the iBlot system (Thermo Fisher Scientific). After blocking with 5% BSA TBS-T buffer (0.05% Tween-20 in 1 × TBS) for 1 h at room temperature, the membranes were incubated with primary antibodies against myeloperoxidase (MPO, 1:500, catalog number: A0398, DAKO, Santa Clara, CA) or citrullinated histone H4 (H4Cit, 1: 1,000, catalog number: 07-596, Millipore, Burlington, MA) at 4 °C overnight, and subsequently with goat anti-rabbit IgG (H + L)- HRP (1:10,000, catalog number: 1706515, Bio-Rad) for 2 h at room temperature. Blots were developed with enhanced chemiluminescence substrate (catalog number: 32106, Thermo Fisher Scientific). Equal loading was confirmed by GAPDH (catalog number: G9545-200UL, 1: 10,000, Sigma). The intensity of the bands on blots was quantified using ImageJ software.

CYP2C19 = molecular target: T1, CYP2C19 (Homo sapiens, UniProt P33261); assay: CYP inhibition in human liver microsome, CYP2C19; format: in vitro ADME
T1 construct: from tissue; host or cells: human liver microsomes
T1 sequence (P33261 whole entry): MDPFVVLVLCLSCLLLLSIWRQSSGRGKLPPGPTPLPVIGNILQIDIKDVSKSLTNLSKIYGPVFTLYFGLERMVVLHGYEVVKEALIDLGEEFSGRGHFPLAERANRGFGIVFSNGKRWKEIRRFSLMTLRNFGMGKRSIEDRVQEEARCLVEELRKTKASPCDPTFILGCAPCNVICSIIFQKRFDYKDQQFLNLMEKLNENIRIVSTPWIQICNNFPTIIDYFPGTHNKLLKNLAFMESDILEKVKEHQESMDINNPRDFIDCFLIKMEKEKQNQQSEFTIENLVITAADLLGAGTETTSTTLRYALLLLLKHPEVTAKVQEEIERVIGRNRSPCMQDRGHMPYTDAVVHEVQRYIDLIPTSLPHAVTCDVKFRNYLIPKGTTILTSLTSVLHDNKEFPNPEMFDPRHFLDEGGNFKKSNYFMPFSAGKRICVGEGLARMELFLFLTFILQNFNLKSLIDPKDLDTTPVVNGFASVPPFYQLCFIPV
Experimental: CYP inhibition: Human liver microsome (0.1–0.5 mg/mL for various CYPs) and appropriate probe substrates (2.5–20 µM) were incubated in potassium phosphate buffer with or without JBI-589 for 5 min at 37 °C. The reaction was initiated by addition of NADPH (1 mM), incubated at 37 °C for 10 min and quenched (0.5% Formic acid in internal standard (IS) containing ACN). Samples were then centrifuged and taken for LC–MS/MS analysis. Percent change in metabolite formation for each substrate under above conditions using formula: Percent inhibition = [1 − (test area ratio/control area ratio)] *100.

[3] = Microsomal stability, HLM; format: in vitro ADME, human; conditions: 1 µM, liver microsomes 0.5 mg/mL; one range given for HLM/MLM/DLM/RLM
Experimental: (§1) Microsomal stability: Liver microsomes (0.5 mg/mL) from different species were incubated with JBI-589 (1 µM) with or without NADPH (1 mM) at 37 °C for 30 min in potassium phosphate buffer (pH 7.4) and then reaction was stopped with quenching solution (0.5% Formic acid in internal standard (IS) containing ACN). Resulting samples were centrifuged and supernatant was taken for LC–MS/MS analysis. Percent metabolism was calculated as follows: % Metabolized: [1 − (test area ratio/control area ratio)] *100.

[4] = Microsomal stability, MLM; format: in vitro ADME, mouse; conditions: 1 µM, liver microsomes 0.5 mg/mL; one range given for HLM/MLM/DLM/RLM
Experimental: as §1

Rat pharmacokinetics = conditions: in vivo, dose not given
Text: Supplement 41598_2023_30246_MOESM1_ESM.docx, table 3: Supplementary Table S3. In vivo pharmacokinetic parameters of JBI-589 in mouse and rat | column: Dose; t1/2; Cmax; C0; AUC0-t; AUC0-∞; CL; F

[5] = 50 mg/kg orally twice daily day 20 to day 56

## Cc1c(-c2cc3ccccc3n2Cc2ccc(F)cc2)nc2cc(C(=O)N3CCC[C@@H](N)C3)ccn12 [JBI-589, (R)-(3-aminopiperidin-1-yl)(2-(1-(4-fluorobenzyl)-1H-indol-2-yl)-3-methylimidazo[1,2-a]pyridin-7-yl)methanone]
[1]
  fraction unbound at 14 h, 10 µM: 0.05 to 0.1
[2]; [5]
  effect on arthritis incidence: significant effect
  effect on arthritis severity: significant effect
[2]; ankle joints day 56, present in vehicle-treated mice
  lesions positive for H3Cit and Ly6G and DNA within the joint space and on the bone surface (immunofluorescence): not in JBI-589-treated mice
[2]; ankle joints, vs control mice
  eroded surface of bones (micro-CT): fewer areas of eroded surface
[2]; day 22, vs vehicle
  plasma levels of H3Cit: lower
[2]; day 56, vs vehicle
  serum IL-6: reduced
  serum anti-Collagen Type II (CII) IgG2c antibody level: comparative
  serum anti-Collagen Type II (CII) IgG antibody level: comparative
[2]; vs vehicle
  H4Cit in synovial tissue (western blot): less
  Myeloperoxidase (MPO) in synovial tissue (western blot): less
  inflammation (exudate and infiltrate), H&E staining of ankle joint: alleviated severity of arthritis
  serum anti-H3Cit antibody: less
CYP2C19; human liver microsomes, 10 µM, human liver microsome, read-out: CYP2C19 inhibition (% inh @10 µM)
  inhibition at 10 min, 10 µM: < 50%
CYP2C19; predicted from % inhibition, text says major CYPs tested
  IC50: > 10 µM
[3]
  HLM % metabolized @ 30 min: 25-50%
[4]
  MLM % metabolized @ 30 min: 25-50%
Rat pharmacokinetics; 2 mg/Kg, IV
  AUC(0-inf): 1390 ng·h/mL
  AUC(0-t): 1320 ng·h/mL
  C0: 451 ng/mL
  Cmax: 419 ng/mL
  Vd: 13.2 L/kg
  clearance: 24.3 mL/min/kg
  half-life: 6.32 h
Rat pharmacokinetics; 10 mg/Kg, PO
  AUC(0-inf): 3580 ng·h/mL
  AUC(0-t): 3390 ng·h/mL
  Cmax: 335 ng/mL
  bioavailability: 51.4%
  half-life: 5.6 h
